Assay results reported in PubChem BioAssay AID1552 (Sanford-Burnham Center for Chemical Genomics, 2009).
Active and inactive are the calls of the source. How the calls were made is not given here.

molecular target: Ubiquitin-conjugating enzyme E2 N (Homo sapiens) (UniProt P61088); assay: UBE2N binders by NMR, biophysical, purified protein (AID 1552); settings: NMR binding to purified UBE2N
Sequence (P61088 whole entry, looked up): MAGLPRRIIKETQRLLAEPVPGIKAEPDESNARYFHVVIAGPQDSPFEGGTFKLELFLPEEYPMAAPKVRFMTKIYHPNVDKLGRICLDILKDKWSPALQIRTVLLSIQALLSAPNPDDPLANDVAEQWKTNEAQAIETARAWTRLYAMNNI

Row | SMILES | Kd
1 | Nc1ccc(S(=O)(=O)Nc2ccc(F)cc2F)cc1 | > 4 mM (inactive)
2 | c1ccc(-c2n[nH]c(-c3ccccn3)n2)nc1 | > 4 mM (inactive)
3 | CC(C)(C)P(=O)(O)c1ccccc1 | > 4 mM (inactive)
4 | O=C(NC1=NCCS1)c1cccc(F)c1 | > 4 mM (inactive)
5 | Cc1cc(O)c(NC(=O)c2ccco2)cc1C | > 4 mM (inactive)
6 | O=C1CSC(=O)N1c1cccc(O)c1 | > 4 mM (inactive)
7 | CC(=O)Oc1cccc2ccc(=O)[nH]c12 | > 4 mM (inactive)
8 | Cc1cc(NC(=O)c2ccc3c(c2)OCCO3)no1 | > 4 mM (inactive)
9 | C[C@]12CCC3C(CC[C@H]4C[C@@H](O)CC[C@]34C)C1CCC2=O (stereo not given in full) | > 4 mM (inactive)
10 | CC1=NN(c2ccc(N)cc2)C(=O)C1 | > 4 mM (inactive)
11 | Cc1ccc(S(=O)(=O)CC(N)=O)cc1 | > 4 mM (inactive)
12 | CC(=O)c1cc(C)ccc1O | > 4 mM (inactive)
13 | CN(C)C(=O)C12CCC(C)(C(=O)O1)C2(C)C (stereo not given) | > 4 mM (inactive)
14 | CC(=O)Oc1c(C)c(C)c2c(c1C)CCC(C)(CCCC(C)CCCC(C)CCCC(C)C)O2 (stereo not given) | > 4 mM (inactive)
15 | NC(=S)NC(=O)CN1C(=O)c2ccccc2C1=O | > 4 mM (inactive)
16 | NC(=O)c1cccc(N2C(=O)C=CC2=O)c1 | > 4 mM (inactive)
17 | CN1C(=O)/C(=C/c2ccc(O)cc2O)SC1=S | > 4 mM (inactive)
18 | O=C(NCCO)c1cc2ccccc2cc1O | > 4 mM (inactive)
19 | CN1C(=O)CC[C@H]1c1cccnc1 | > 4 mM (inactive)
20 | CC(C)(OC(=O)c1ccccc1)[C@@H]1Cc2cc3ccc(=O)oc3cc2O1 | > 4 mM (inactive)
21 | CC1=NN2C(=N)/C(=C\c3cccs3)C(=O)N=C2S1 | > 4 mM (inactive)
22 | CCCCC(Nc1n[nH]c(=O)[nH]c1=O)C(=O)O (stereo not given) | > 4 mM (inactive)
23 | O=C(NN1CCOCC1)c1cccs1 | > 4 mM (inactive)
24 | CN1CCN(C(=O)c2ccccc2N)CC1 | > 4 mM (inactive)

Row | SMILES | Kd
25 | Cc1cccc(C)c1NC(=O)CN1CCOCC1 | > 4 mM (inactive)
26 | CC(C)=CCC[C@](C)(O)C1CC=C(C)CC1 (stereo not given in full) | > 4 mM (inactive)
27 | NCC(O)c1ccc(O)cc1 (stereo not given) | > 4 mM (inactive)
28 | NC(=O)CN1CC(c2ccccc2)CC1=O (stereo not given) | > 4 mM (inactive)
29 | CCOC(=O)CSCC(=O)Nc1nccs1 | > 4 mM (inactive)
30 | Cc1ccccc1NC(=O)/C=C\C(N)=O | > 4 mM (inactive)
31 | Nc1nc2ncc(CNc3ccc(C(=O)N[C@@H](CCC(=O)O)C(=O)O)cc3)nc2c(=O)[nH]1 | > 4 mM (inactive)
32 | O=C(Nn1cnnc1)c1csc2c1CCCC2 | > 4 mM (inactive)
33 | O=C(Nc1ccc(Cl)cn1)c1cnn2cccnc12 | > 4 mM (inactive)
34 | COC[C@]12CN(C=O)C3[C@@H]4[C@H](OC)C1[C@]3(C1CC3(O)C(OC)C(O)C4(OC(C)=O)C1C3OC(=O)c1ccccc1)[C@@H](OC)C[C@H]2O (stereo not given in full) | > 4 mM (inactive)
35 | C=C1CCC2C(CC2(C)C)C(=C)CC/C1=N/O (stereo not given) | > 4 mM (inactive)
36 | Cc1nnc(Nc2cccnc2)[nH]c1=O | > 4 mM (inactive)
37 | Cn1ncc(C(=O)O)c1-c1ccccc1 | > 4 mM (inactive)
38 | Cc1cc2nc3c(=O)[nH]c(=O)nc-3n(CC(O)C(O)C(O)CO)c2cc1C (stereo not given) | > 4 mM (inactive)
39 | COc1ccc(-c2cc(=O)c3c(O)cc(O[C@H]4O[C@H](CO[C@@H]5O[C@@H](C)[C@H](O)[C@@H](O)[C@H]5O)[C@@H](O)[C@H](O)[C@H]4O)cc3o2)cc1 | > 4 mM (inactive)
40 | Cc1cc(NC(=O)Cc2c(F)cccc2Cl)no1 | > 4 mM (inactive)
41 | O=C(c1cnsn1)N1CCN(c2ccccn2)CC1 | > 4 mM (inactive)
42 | CCN1C(=O)c2cccc3c(S(N)(=O)=O)ccc1c23 | > 4 mM (inactive)
43 | NC1=NCc2ccccc21 | > 4 mM (inactive)
44 | Cc1noc(C)c1C(=O)N1CCC2(CC1)OCCO2 | > 4 mM (inactive)
45 | CCOC(=O)c1[nH]c(C)cc1C | > 4 mM (inactive)
46 | Cc1nc(SCC#N)c2c3c(sc2n1)CCC3 | > 4 mM (inactive)
47 | CC(C)NC(=O)Cc1c(O)c2ccccc2[nH]c1=O | > 4 mM (inactive)
48 | NC1CN2CCC1CC2 (stereo not given) | > 4 mM (inactive)

Row | SMILES | Kd
49 | NC(=O)CS(=O)(=O)c1ccc(Cl)cc1 | > 4 mM (inactive)
50 | NC(=O)C1CCN(C(=O)c2ccccc2F)CC1 | > 4 mM (inactive)
51 | Cn1c(=O)c2c(n(C)c1=O)=NC1(CCCCC1)N=2 | > 4 mM (inactive)
52 | COc1ccc([C@@H]2CC(=O)c3c(O)cc(O)cc3O2)cc1O | > 4 mM (inactive)
53 | Cc1[nH]n(-c2ccccc2)c(=O)c1[N+](=O)[O-] | > 4 mM (inactive)
54 | O=C(O)Cn1cnc2ccccc2c1=O | > 4 mM (inactive)
55 | O=c1cc(-c2ccc(O)cc2)[nH]c(=S)[nH]1 | > 4 mM (inactive)
56 | O=c1c(-c2ccco2)[n+]([O-])c2ccccc2n1O | > 4 mM (inactive)
57 | O=C(NC1=NCCS1)c1ccc2snnc2c1 | > 4 mM (inactive)
58 | Cn1ncc(N2CCOCC2)c(Cl)c1=O | > 4 mM (inactive)
59 | CCOC(=O)C1CCC(=O)c2cccn21 (stereo not given) | > 4 mM (inactive)
60 | COc1ccc2c(c1)CCCN2C(N)=O | > 4 mM (inactive)
61 | CC(=O)Nc1ccc(NC(=O)c2ccnn2C)cc1 | > 4 mM (inactive)
62 | Cc1ccc(C)c(C(=O)NCc2ccncc2)c1 | > 4 mM (inactive)
63 | OCc1cc(-c2cccs2)on1 | > 4 mM (inactive)
64 | CN1CCC(N2CCN(C)CC2)CC1 | > 4 mM (inactive)
65 | CC(C)=CC(=O)Nc1ccc2c(c1)OCO2 | > 4 mM (inactive)
66 | Nc1cccc(CC(=S)N2CCOCC2)c1 | > 4 mM (inactive)
67 | Cc1cc(=O)n2[nH]c(C)cc2n1 | > 4 mM (inactive)
68 | CN1C(=O)N(C)C2NC(=O)NC21 (stereo not given) | > 4 mM (inactive)
69 | Cc1nc(-c2cnccn2)sc1C(=O)O | > 4 mM (inactive)
70 | O=S1(=O)CCC(NCCO)C1 (stereo not given) | > 4 mM (inactive)
71 | CC(C)(C)CC(=O)NC1=NCCS1 | > 4 mM (inactive)
72 | CN1CCN(C(=O)Nc2cccc3ccccc23)CC1 | > 4 mM (inactive)

Row | SMILES | Kd
73 | Cn1ncc(C(=O)NC2CCCCC2)c1Cl | > 4 mM (inactive)
74 | NCCc1c[nH]c2ccccc12 | > 4 mM (inactive)
75 | OCc1csc(-c2ccccc2)n1 | > 4 mM (inactive)
76 | Cn1c(O)c(/C=C2\C=CC=N2)c(=O)[nH]c1=S | > 4 mM (inactive)
77 | CCc1nnsc1C(=O)Nc1nccs1 | > 4 mM (inactive)
78 | Cc1cc(=O)n2[nH]c(N)nc2n1 | > 4 mM (inactive)
79 | Cc1cc(C)n2c(SCc3c(C)noc3C)nnc2n1 | > 4 mM (inactive)
80 | COCC(=O)OCn1nnc2ccccc2c1=O | > 4 mM (inactive)
81 | O=[N+]([O-])c1cccc2c1nnn2C(CO)OCCO (stereo not given) | > 4 mM (inactive)
82 | Cc1cc(C)n(CC(=O)O)n1 | > 4 mM (inactive)
83 | CCN1CC2(C)CC[C@H](OC)[C@]34C2[C@H](O)C2(OCO[C@@]25C[C@H](OC)[C@H]2C[C@]3(O)C5[C@H]2O)C14 | > 4 mM (inactive)
84 | NC(=O)c1ccsc1NC(=O)c1ccccc1[N+](=O)[O-] | > 4 mM (inactive)
85 | O=C(O)c1cc2ccccc2cn1 | > 4 mM (inactive)
86 | NCc1ccc(-c2cccs2)s1 | > 4 mM (inactive)
87 | O=C(O)c1c[nH]c2ccccc12 | > 4 mM (inactive)
88 | CN1CCN(C2CCSC2)CC1 (stereo not given) | > 4 mM (inactive)
89 | O=C(Nc1ccccn1)C(=O)N1CCCC1 | > 4 mM (inactive)
90 | CC(=O)Nc1ccc(Cl)c(C(N)=O)c1 | > 4 mM (inactive)
91 | O=C(Nc1ccc2c(c1)OCO2)c1cnn2cccnc12 | > 4 mM (inactive)
92 | O=C1c2cccnc2C(=O)N1Cc1ccco1 | > 4 mM (inactive)
93 | CCOC(=O)c1c(C)[nH]c2ccc(O)cc12 | > 4 mM (inactive)
94 | c1ccc(-c2noc(-c3cccnc3)n2)nc1 | > 4 mM (inactive)
95 | COc1ccc2c(c1OC)C(=O)O[C@H]2[C@H]1c2cc3c(cc2CCN1C)OCO3 | > 4 mM (inactive)
96 | C[C@H](CCC(=O)O)[C@H]1CCC2C3C(CC[C@@]21C)[C@@]1(C)CC[C@@H](O)C[C@H]1C[C@@H]3O (stereo not given in full) | > 4 mM (inactive)

Row | SMILES | Kd
97 | Nc1ccc2c(c1)CCC2=O | > 4 mM (inactive)
98 | N#Cc1cc2ccccc2nc1N | > 4 mM (inactive)
99 | CCn1c(-c2ccccc2)n[nH]c1=S | > 4 mM (inactive)
100 | O=c1cccc2n1CC1CC2CN2CCCC[C@@H]12 (stereo not given in full) | > 4 mM (inactive)
101 | CSc1nnc2c(n1)OC=Nc1ccccc1-2 | > 4 mM (inactive)
102 | O=S(=O)(Cc1ccccc1)N1CCCCCC1 | > 4 mM (inactive)
103 | CC1O[C@@H](Oc2c(-c3ccc(O)c(O)c3)oc3cc(O)cc(O)c3c2=O)[C@H](O)[C@H](O)[C@H]1O (stereo not given in full) | > 4 mM (inactive)
104 | COc1ccc2c(c1O)-c1c(OC)c(OC)cc3c1[C@H](C2)N(C)CC3 | > 4 mM (inactive)
105 | CC(=O)Nc1ccc(NC2SC(=O)NC2=O)cc1 (stereo not given) | > 4 mM (inactive)
106 | Clc1ccccc1OCc1nc(-c2ccncc2)no1 | > 4 mM (inactive)
107 | NC(N)=Nc1nc2ccccc2o1 | > 4 mM (inactive)
108 | Cc1c(N=Cc2ccco2)c(=O)n(-c2ccccc2)n1C | > 4 mM (inactive)
109 | Nc1cncc(C(=O)O)c1 | > 4 mM (inactive)
110 | O=c1[nH]cc(NC(=S)N2CCOCC2)c(=O)[nH]1 | > 4 mM (inactive)
111 | Cc1cc(C)nc(/N=C(/N)Nc2cccc(F)c2)n1 | > 4 mM (inactive)
112 | CC(=O)Nc1cccc(N2CCCC2=O)c1 | > 4 mM (inactive)
113 | CC(=O)Nc1sc(C)c(C)c1C(N)=O | > 4 mM (inactive)
114 | COc1ccccc1NC(=O)c1cc[n+]([O-])cc1 | > 4 mM (inactive)
115 | Cc1cc(C(=O)NCc2cccs2)c(C)o1 | > 4 mM (inactive)
116 | CC1=C2C(O)C(=O)OC3CC4C(C)(C)C(=O)C=C[C@]4(C)C(CC1)[C@]23C (stereo not given in full) | > 4 mM (inactive)
117 | CC(C)Nc1ncnc2c1nnn2C | > 4 mM (inactive)
118 | Cn1c(SCC(N)=O)nc2ccccc2c1=O | > 4 mM (inactive)
119 | NC(=O)c1ccc2c(c1)OCO2 | > 4 mM (inactive)
120 | Nc1cccc(-c2cnco2)c1 | > 4 mM (inactive)
